Assay results reported in ChEMBL document CHEMBL3580603, “Natural therapeutic agents for neurodegenerative diseases from a traditional herbal medicine Pongamia pinnata (L.) Pierre” (Bioorg Med Chem Lett, 2014).

Columns and labels:
BV-2 = assay: Anti-neuroinflammatory activity against mouse BV2 cells assessed as inhibition of LPS-induced nitric oxide production after 24 hrs by Griess assay; assay type: functional, cell-based; settings: BV-2, 24 h
[1] = Cytotoxicity against mouse BV2 cells assessed as reduction of cell viability at IC50 after 24 hrs by MTT assay; assay type: cell-based; settings: bv-2, 24 h

SMILES | IC50 (BV-2) | Activity [1]
CC1(C)C=Cc2cc(C(=O)/C=C/c3ccccc3)c(O)cc2O1 [ISOLONCHOCARPIN] | > 100 µM | Non-toxic
C=C(C)[C@@H]1CC[C@]2(C(=O)O)CC[C@]3(C)[C@H](CC[C@@H]4[C@@]5(C)CCC(=O)C(C)(C)[C@@H]5CC[C@]43C)[C@@H]12 [BETUNOLIC ACID] | > 100 µM | Non-toxic
COc1c2ccoc2cc2oc(-c3ccccc3)cc(=O)c12 [PINNATIN] | > 100 µM | Non-toxic
CC1(C)CC[C@]2(C(=O)O)CC[C@]3(C)[C@H](CC[C@@H]4[C@@]5(C)CC[C@H](O)C(C)(C)[C@@H]5CC[C@]43C)[C@H]2[C@H]1O | 22.7 µM | Non-toxic
O=c1cc(-c2ccccc2)oc2c1ccc1occc12 [LANCEOLATIN B] | 20.6 µM | Non-toxic
CN1CC[C@@H](O)C[C@H]1C(=O)O | > 100 µM | Non-toxic
COc1c(-c2ccc3c(c2)OCO3)oc2c3c(ccc2c1=O)OC(C)(C)C=C3 [PONGACHROMENE] | > 100 µM | Non-toxic
COc1c2ccoc2cc2oc(-c3ccc4c(c3)OCO4)cc(=O)c12 | > 100 µM | Non-toxic
O=c1cc(-c2ccc3c(c2)OCO3)oc2c1ccc1occc12 [PONGAGLABRONE] | 45.7 µM | Non-toxic
CC1(C)C=Cc2c(ccc3c2O[C@H](c2ccc4c(c2)OCO4)CC3=O)O1 | 78.8 µM | Non-toxic
COc1c(-c2ccc3c(c2)OCO3)oc2c(ccc3occc32)c1=O [PONGAPIN] | > 100 µM | Non-toxic
CC1(C)C=Cc2c(ccc(C(=O)/C=C/c3ccccc3)c2O)O1 [LONCHOCARPIN] | 3.54 µM | Non-toxic
CC1(C)C=Cc2c(ccc(C(=O)/C=C/c3ccc4c(c3)OCO4)c2O)O1 | 6.56 µM | Non-toxic
COc1ccc2c(=O)c(OC)c(-c3ccc(OC)c(OC)c3)oc2c1 [FISETIN TETRAMETHYL ETHER] | 28.5 µM | Non-toxic
COc1c(-c2ccccc2)oc2c(ccc3occc32)c1=O [KARANJIN] | > 100 µM | Non-toxic

Second part, led by results:

IC50 (BV-2) | SMILES | Activity [1]
14.1 µM | COc1ccc2c(=O)c(OC)c(-c3ccc4c(c3)OCO4)oc2c1 [DEMETHOXYKANUGIN] | Non-toxic
> 100 µM | O=c1c(-c2ccc3c(c2)OCO3)coc2cc(O)ccc12 [PSEUDOBAPTOGENIN] | Non-toxic
5.98 µM | COc1cc2occc2c2oc(-c3ccccc3)cc(=O)c12 | Non-toxic
> 100 µM | COc1cc(O)cc(-c2oc3c(ccc4occc43)c(=O)c2OC)c1 | Non-toxic
> 100 µM | COc1ccc2c(=O)c(OC)c(-c3cc(OC)c4c(c3)OCO4)oc2c1 | Non-toxic
> 100 µM | COc1ccc(-c2coc3cc(OCC=C(C)C)ccc3c2=O)cc1 | Non-toxic
> 100 µM | COc1ccc(-c2coc3c(OC)c(O)ccc3c2=O)cc1 | Non-toxic
> 100 µM | COc1ccc(-c2coc3cc(O)ccc3c2=O)cc1 [FORMONONETIN] | Non-toxic
87.7 µM | COc1ccc(OC)c(-c2cc(=O)c3ccc4occc4c3o2)c1 | Non-toxic
> 100 µM | COc1cccc(-c2cc(=O)c3ccc4occc4c3o2)c1 | Non-toxic
> 100 µM | COc1ccc(-c2coc3c(O)c(O)ccc3c2=O)cc1O | Non-toxic
> 100 µM | COc1cc(OC)c(Cl)c(-c2cc(=O)c3ccc4occc4c3o2)c1Cl | Non-toxic
50.9 µM | COc1ccc(-c2coc3c(O)c(OC)ccc3c2=O)cc1 [RETUSIN 7-METHYL ETHER] | Non-toxic
> 100 µM | COc1cc(OC)cc(-c2cc(=O)c3ccc4occc4c3o2)c1 | Non-toxic
